IC50 data for 17 compounds are collected here from patent US20260242320A1, “USE OF CANNABIDIOL DERIVATIVE IN PREPARATION OF MEDICAMENT” (priority 2023, published 2026).

A word on the IC50: it is the concentration at which inhibition is half-maximal.

Experiment [1] deals with LPS-induced proinflammatory factor nitric oxide (NO) in immunocompetent BV-2 cells. The experiment can be described thus: NO assay: inhibition of LPS-induced NO overproduction in BV-2 cells. The class given is cell-based. Particulars: Mus musculus, BV-2, 24 h, read-out: Antineuroinflammatory activity (IC50 inhibiting LPS-induced NO). As to the method: BV-2 cells were seeded at a density of 5×10^4 cells per milliliter in 96-well plates. After 24 h incubation, the media was removed and changed to DMEM without FBS and penicillin-streptomycin. LPS (200 ng/mL) and different concentrations of compounds were added. After 24 h treatment, 100 μL of media was transferred to flat black 96-well micro fluor plates, and then, 10 μL of 0.05 mg/mL 2,3-diaminonaphthalene was added and incubated in the dark for 15 min. 5 μL of NaOH (3 M) was subsequently added to each well to quench the reaction. NO inhibition ratio was analyzed by a SYNERGY H1 Microplate Reader (BioTek Instruments, Carlsbad, CA, USA) with excitation at 360 nm and emission at 430 nm. The fluorescence value of the LPS-treated group was set as 100%.

In a further experiment the test system is BV-2 cellular viability. Nature of the experiment: Cell viability / cytotoxicity by crystal violet staining. The following applies: Mus musculus, BV-2, read-out: Cellular toxicity (IC50 inhibiting BV-2 cellular viability). Type of experiment: cell-based. As to the method:
100 μL of culture medium were transferred to a black 96-well plate for later use. Following removal of old culture medium, 100 μL of 4% paraformaldehyde was added for fixation. Fixation was performed for 5 minutes. Paraformaldehyde was then removed, and 100 μL of 0.05% crystal violet was added. The resultant mixture was incubated for 15 minutes, after which time crystal violet was removed and the mixture was slowly rinsed with water three times. Next, 150 μL of ethanol was added, and the mixture was incubated for 15 minutes. After incubation, the absorbance was measured at 540 nm using a spectrophotometer. Viability (%)=100× Fluorescence values of the dosing group/Fluorescence values of the blank group.
Cell viability was determined by crystal violet staining. Briefly, BV-2 cells were treated as indicated in the NO assay. The media was removed, and then 4% paraformaldehyde was added to fix the cells for 5 min. Cells were stained with 100 μL 0.05% crystal violet for 15 min and washed with water 2 times. Next, 150 μL of ethanol was added to each well, and the plate was incubated for 15 min at room temperature. Absorbance at 540 nm was measured using a SYNERGY H1 Microplate Reader.

Structures are written as SMILES.

Turning to `C=C(C)[C@@H]1CCC(C)=C[C@H]1c1c(O)cc(CCCCCCCC)cc1O` [Compound 12g, (1′R,2′R)-5′-Methyl-4-octyl-2′-(prop-1-en-2-yl)-1′,2′,3′,4′-tetra-hydro-[1,1′-biphenyl]-2,6-diol], the IC50 in experiment [1] was determined as 174 ± 33 µM; with BV-2 cellular viability it was 26.2 ± 5.2 µM.

For `C=C(C)[C@@H]1CCC(C)=C[C@H]1c1c(OC)cc(CCCCC)cc1OC` [Compound 1b, (1R,2R)-2′,6′-Dimethoxy-5-methyl-4′-pentyl-2-(prop-1-en-2-yl)-1,2,3,4-tetrahydro-1,1′-biphenyl], the IC50 (in experiment [1]; in the experiment with BV-2 cellular viability) was more than 200 µM in each case.

Regarding `C#CCOc1cc(CCCCC)cc(O)c1[C@@H]1C=C(C)CC[C@H]1C(=C)C` [Compound 5a, (1′R,2′R)-5′-Methyl-4-pentyl-2′-(prop-1-en-2-yl)-6-(prop-2-yn-1-yloxy)-1′,2′,3′,4′-tetrahydro-[1,1′-biphenyl]-2-ol], the results for the 50% inhibitory concentration (IC50) (in experiment [1]; with BV-2 cellular viability) were 99.6 ± 16.3 µM and 65 ± 7.9 µM, respectively.

With `C=C(C)[C@@H]1CCC(C)=C[C@H]1c1c(OCCC)cc(CCCCC)cc1OCCC` [Compound 3b, (1R,2R)-5-Meth-yl-4′-pentyl-2-(prop-1-en-2-yl)-2′,6′-dipropoxy-1,2,3,4-tetrahydro-1,1′-biphenyl], the IC50 (in experiment [1]; in the experiment with BV-2 cellular viability) was more than 200 µM each time.

For the compound `C=C(C)[C@@H]1CCC(C)=C[C@H]1c1c(O)cc(CCCCCCCCCCCC)cc1O` [Compound 12h, (1′R,2′R)-4-Dodecyl-5′-methyl-2′-(prop-1-en-2-yl)-1′,2′,3′,4′-tet-rahydro-[1,1′-biphenyl]-2,6-diol], the IC50 (in experiment [1]; with BV-2 cellular viability) was more than 200 µM in each case.

In the case of `C=C(C)[C@@H]1CCC(C)=C[C@H]1c1c(O)cc(C(C)n2ccnc2)cc1O` (stereo partly drawn) [Compound 19c, (1′R,2′R)-4-(1-(1H-Imidazole-1-yl)ethyl)-5′-methyl-2′-(prop-1-en-2-yl)-1′,2′,3′,4′-tetrahydro-[1,1′-biphenyl]-2,6-diol], the IC50 in experiment [1] was 4.4 ± 0.5 µM; with BV-2 cellular viability, 32.6 ± 3.2 µM.

As to `C=C(C)[C@@H]1CCC(C)=C[C@H]1c1c(O)cc(CC)cc1O` [Compound 12a, (1′R,2′R)-4-Ethyl-5′-methyl-2′-(prop-1-en-2-yl)-1′,2′,3′,4′-tetra-hydro-[1,1′-biphenyl]-2,6-diol], the IC50 in experiment [1] was found to be 2.5 ± 0.3 µM; in the experiment on BV-2 cellular viability, 22.6 ± 1.6 µM.

Turning to `C=C(C)[C@@H]1CCC(C)=C[C@H]1c1c(O)cc(CCCCCCC)cc1O` [Compound 12f, (1′R,2′R)-4-Heptyl-5′-methyl-2′-(prop-1-en-2-yl)-1′,2′,3′,4′-tetra-hydro-[1,1′-biphenyl]-2,6-diol], the IC50 in experiment [1] was determined as 42 ± 9.3 µM; with BV-2 cellular viability, 14.1 ± 0.7 µM.

Turning to `C=C(C)[C@@H]1CCC(C)=C[C@H]1c1c(O)cc(CCCCC)cc1OCC` [Compound 2a, (1′ R,2′R)-6-Ethoxy-5′-methyl-4-pentyl-2′-(prop-1-en-2-yl)-1′,2′,3′,4′-tetrahydro-[1,1′-biphenyl]-2-ol], the IC50 in experiment [1] was 167 ± 16.9 µM; in the experiment on BV-2 cellular viability, 176 ± 7.4 µM.

Turning to `C#CCOc1cc(CCCCC)cc(OCC#C)c1[C@@H]1C=C(C)CC[C@H]1C(=C)C` [Compound 5b, (1R,2R)-5-Methyl-4′-pentyl-2-(prop-1-en-2-yl)-2′,6′-bis(prop-2-yn-1-yloxy)-1,2,3,4-tetrahydro-1,1′-biphenyl], the IC50 (in experiment [1]; in the experiment on BV-2 cellular viability) was more than 200 µM in each case.

`C=CCOc1cc(CCCCC)cc(O)c1[C@@H]1C=C(C)CC[C@H]1C(=C)C` [Compound 4a, (1′R,2′R)-6-(Allyloxy)-5′-methyl-4-pentyl-2′-(prop-1-en-2-yl)-1′,2′,3′,4′-tetrahydro-[1,1′-biphenyl]-2-ol]: the IC50 in experiment [1] came out at 59.8 ± 15.6 µM; with BV-2 cellular viability it was 71.5 ± 9.4 µM.

With `C=C(C)[C@@H]1CCC(C)=C[C@H]1c1c(O)cc(CCC)cc1O` [Compound 12b, (1′R,2′R)-5′-Methyl-2′-(prop-1-en-2-yl)-4-propyl-1′,2′,3′,4′-tetra-hydro-[1,1′-biphenyl]-2,6-diol, reference compound], the IC50 came out at 5.3 ± 2.9 µM in experiment [1] and 18.3 ± 4.4 µM in the experiment with BV-2 cellular viability.

In the case of `C=C(C)[C@@H]1CCC(C)=C[C@H]1c1c(O)cc(CCCCCC)cc1O` [Compound 12e, (1′R,2′R)-4-Hexyl-5′-methyl-2′-(prop-1-en-2-yl)-1′,2′,3′,4′-tetra-hydro-[1,1′-biphenyl]-2,6-diol], the IC50 in experiment [1] amounted to 2.1 ± 0.4 µM; with BV-2 cellular viability, 19 ± 0.5 µM.

Regarding `C=C(C)[C@@H]1CCC(C)=C[C@H]1c1c(O)cc(CCCCC)cc1OCCC` [Compound 3a, (1′R,2′R)-5′-Methyl-4-pentyl-2′-(prop-1-en-2-yl)-6-propoxy-1′,2′,3′,4′-tetrahydro-[1,1′-biphenyl]-2-ol], the concentration for half-maximal inhibition (IC50) (in experiment [1]; with BV-2 cellular viability) was more than 200 µM in each case.

Consider `C=C(C)[C@@H]1CCC(C)=C[C@H]1c1c(OCC)cc(CCCCC)cc1OCC` [Compound 2b, (1R,2R)-2′,6′-Diethoxy-5-methyl-4′-pentyl-2-(prop-1-en-2-yl)-1,2,3,4-tetrahydro-1,1′-biphenyl], for which the IC50 (in experiment [1]; in the experiment with BV-2 cellular viability) was more than 200 µM in each case.

Consider `C=C(C)[C@@H]1CCC(C)=C[C@H]1c1c(O)cc(CCCC)cc1O` [Compound 12c], for which the IC50 was found to be 5 ± 3.5 µM in experiment [1] and 11.1 ± 2.8 µM in the experiment with BV-2 cellular viability.

With `C=CCOc1cc(CCCCC)cc(OCC=C)c1[C@@H]1C=C(C)CC[C@H]1C(=C)C` [Compound 4b, (1R,2R)-2′,6′-Bis(allyloxy)-5-methyl-4′-pentyl-2-(prop-1-en-2-yl)-1,2,3,4-tetrahy-dro-1,1′-biphenyl], the half-maximal inhibitory concentration (IC50) (in experiment [1]; in the experiment on BV-2 cellular viability) was more than 200 µM throughout.
